# Results taken from ChEMBL document CHEMBL4602703, “Lead Optimization of a Pyrrole-Based Dihydroorotate Dehydrogenase Inhibitor Series for the Treatment of Malaria” (J Med Chem, 2020).
# Legend:
# CYP3A4/5 [1] = molecular target: T1, CYP3A4/5 (Homo sapiens, UniProt P08684+P20815); experiment: in vitro; conditions: liver microsomes, probe testosterone
# CYP3A4/5 [2] = molecular target: T1, CYP3A4/5; experiment: in vitro; conditions: liver microsomes, probe midazolam
# [3] = simulated gi fluid, pH 6.5
# [4] = Cmax in Swiss mouse at 50 mg/kg, po via gavage measured up to 24 hrs by UPLC-MS analysis; assay type: ADME, organism-based; set-up: dose 50 mg/kg, route oral; conditions: in vivo
# [5] = Oral bioavailability in Swiss mouse at 18.3 mg/kg dosed via gavage measured up to 24 hrs by UPLC-MS analysis; assay type: ADME, organism-based; conditions: in vivo
# Albumin = Albumin (Homo sapiens, UniProt P02768); experiment: Binding affinity to albumin (unknown origin) in ALBUMAX medium; assay type: ADME; conditions: read-out: PB (converted)
# Chain of Albumin (P02768 whole entry): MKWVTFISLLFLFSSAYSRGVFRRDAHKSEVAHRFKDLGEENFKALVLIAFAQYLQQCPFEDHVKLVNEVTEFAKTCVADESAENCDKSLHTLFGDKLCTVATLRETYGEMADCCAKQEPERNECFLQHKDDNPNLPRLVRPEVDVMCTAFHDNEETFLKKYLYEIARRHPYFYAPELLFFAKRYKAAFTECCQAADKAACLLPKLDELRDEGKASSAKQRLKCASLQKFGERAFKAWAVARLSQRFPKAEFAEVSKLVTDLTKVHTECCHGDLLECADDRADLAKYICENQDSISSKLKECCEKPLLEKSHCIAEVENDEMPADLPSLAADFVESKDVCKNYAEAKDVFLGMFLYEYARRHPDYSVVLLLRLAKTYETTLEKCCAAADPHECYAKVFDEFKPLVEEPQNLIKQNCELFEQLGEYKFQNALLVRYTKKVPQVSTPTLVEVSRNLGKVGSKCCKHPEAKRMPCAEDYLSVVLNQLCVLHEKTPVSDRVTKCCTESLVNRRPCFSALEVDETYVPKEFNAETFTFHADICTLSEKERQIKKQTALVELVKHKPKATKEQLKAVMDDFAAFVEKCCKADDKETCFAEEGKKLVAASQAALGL
# Cytochrome P450 2D6 [6] = molecular target: T2, Cytochrome P450 2D6 (Homo sapiens, UniProt P10635); experiment: Inhibition of CYP2D6 in human liver microsomes using dextromethorphan as substrate measured for 10 to 30 mins in presence of NADPH regenerating system by UPLC-MS analysis; assay type: ADME
# T2 sequence (P10635 whole entry): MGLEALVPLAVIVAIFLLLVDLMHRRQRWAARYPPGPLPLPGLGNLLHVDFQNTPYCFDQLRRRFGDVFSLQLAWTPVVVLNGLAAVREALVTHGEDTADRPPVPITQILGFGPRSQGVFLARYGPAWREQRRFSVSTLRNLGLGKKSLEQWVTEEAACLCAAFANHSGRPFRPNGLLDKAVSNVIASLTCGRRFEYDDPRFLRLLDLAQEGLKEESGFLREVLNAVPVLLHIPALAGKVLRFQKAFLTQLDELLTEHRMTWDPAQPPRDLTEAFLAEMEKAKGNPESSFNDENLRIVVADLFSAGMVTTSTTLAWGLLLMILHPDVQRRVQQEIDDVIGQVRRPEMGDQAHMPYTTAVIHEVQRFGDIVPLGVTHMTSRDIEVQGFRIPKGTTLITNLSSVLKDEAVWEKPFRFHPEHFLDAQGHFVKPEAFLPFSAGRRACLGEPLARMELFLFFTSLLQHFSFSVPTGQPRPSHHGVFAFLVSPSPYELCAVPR
# [7] = AUC (0 to 23 hrs) in NOD-SCID IL2Rgamma null mouse blood infected with Plasmodium falciparum 3D70087/N9 at 50 mg/kg, po qd for 4 days starting from 3 days post infection and measured after 24 hrs post dose by LC-MS/MS analysis; assay type: ADME, organism-based; set-up: dose 50 mg/kg, time < 23 hr, route oral
# [8] = Apparent half life in Swiss mouse at 50 mg/kg, po via gavage measured up to 24 hrs by UPLC-MS analysis; assay type: ADME, organism-based; conditions: in vivo
# CYP3A4/5 [9] = molecular target: T1, CYP3A4/5; experiment: in vitro; conditions: liver microsomes, probe testosterone; remark: listed apart in the source
# [10] = AUC (0 to infinity) in Swiss mouse at 50 mg/kg, po via gavage measured up to 24 hrs by UPLC-MS analysis; assay type: ADME, organism-based; set-up: dose 50 mg/kg, route oral, time infinity; conditions: in vivo
# [11] = molecular target: Potassium voltage-gated channel subfamily A member 5 (Homo sapiens, UniProt P22460); experiment: Inhibition of human Kv1.5 by IonWorks patch clamp electrophysiology assay
# Chain of Potassium voltage-gated channel subfamily A member 5 (P22460 whole entry): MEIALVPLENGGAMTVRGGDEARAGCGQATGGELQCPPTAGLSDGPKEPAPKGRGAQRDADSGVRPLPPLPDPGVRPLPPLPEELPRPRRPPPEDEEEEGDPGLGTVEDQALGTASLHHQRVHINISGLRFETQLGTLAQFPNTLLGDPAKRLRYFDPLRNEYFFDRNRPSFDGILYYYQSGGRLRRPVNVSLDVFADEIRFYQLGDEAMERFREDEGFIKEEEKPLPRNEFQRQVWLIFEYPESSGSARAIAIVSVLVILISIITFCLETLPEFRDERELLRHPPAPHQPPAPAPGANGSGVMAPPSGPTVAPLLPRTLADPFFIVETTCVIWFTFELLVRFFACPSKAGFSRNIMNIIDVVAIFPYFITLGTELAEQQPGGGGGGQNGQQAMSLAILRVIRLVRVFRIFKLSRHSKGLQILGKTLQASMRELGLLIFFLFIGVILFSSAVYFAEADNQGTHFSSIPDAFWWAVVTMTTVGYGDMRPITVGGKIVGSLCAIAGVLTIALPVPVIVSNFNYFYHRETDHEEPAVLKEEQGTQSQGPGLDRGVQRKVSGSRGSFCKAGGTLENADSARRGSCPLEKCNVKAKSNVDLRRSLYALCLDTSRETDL
# Plasmodium falciparum = assay type: functional, organism-based; conditions: R10C1B, 72 h
# [12] = Apparent half life in Sprague-Dawley rat at 33 mg/kg, po administered via gavage measured up to 24 hrs by LC-MS analysis; assay type: ADME, organism-based; conditions: in vivo
# [13] = Oral bioavailability in Sprague-Dawley rat at 3 mg/kg administered via gavage measured up to 24 hrs by LC-MS analysis; assay type: ADME, organism-based; conditions: in vivo
# physchem = conditions: octanol/water, pH 7.4
# [14] = buffer, pH 7.4
# [15] = Cmax in Swiss mouse at 10.5 mg/kg, po via gavage measured up to 24 hrs by UPLC-MS analysis; assay type: ADME, organism-based; set-up: dose 10.5 mg/kg, route oral; conditions: in vivo
# L1210 = experiment: Cytotoxicity against mouse L1210 cells assessed as reduction in cell viability; assay type: cell-based
# [16] = Cmax in Sprague-Dawley rat at 3 mg/kg, po administered via gavage measured up to 24 hrs by LC-MS analysis; assay type: ADME, organism-based; set-up: dose 3 mg/kg, route oral; conditions: in vivo
# [17] = simulated gi fluid, pH 1.6
# [18] = fAUC in Plasmodium falciparum 3D70087/N9 infected po dosed NOD-SCID IL2Rgamma null mouse blood administered once daily for 4 days; assay type: ADME, organism-based; conditions: in vivo, 96 h
# [19] = Volume of distribution at steady state in Sprague-Dawley rat at […], iv administered as infusion for 10 mins and measured up to 24 hrs by LC-MS analysis; assay type: ADME, organism-based; conditions: in vivo, read-out: Vdss
# [20] = Clearance in Sprague-Dawley rat plasma at […], iv administered as infusion for 10 mins and measured up to 24 hrs by LC-MS analysis; assay type: ADME, organism-based; conditions: in vivo
# Cytochrome P450 2D6 [21] = molecular target: T2, Cytochrome P450 2D6; experiment: Time-dependent inhibition of CYP2D6 in human liver microsomes using dextromethorphan as substrate in presence of NADPH regenerating system by UPLC-MS analysis; assay type: ADME
# Cytochrome P450 2C9 = Cytochrome P450 2C9 (Homo sapiens, UniProt P11712); experiment: Time-dependent inhibition of CYP2C9 in human liver microsomes using tolbutamide as substrate in absence of NADPH regenerating system by UPLC-MS analysis; assay type: ADME
# Chain of Cytochrome P450 2C9 (P11712 whole entry): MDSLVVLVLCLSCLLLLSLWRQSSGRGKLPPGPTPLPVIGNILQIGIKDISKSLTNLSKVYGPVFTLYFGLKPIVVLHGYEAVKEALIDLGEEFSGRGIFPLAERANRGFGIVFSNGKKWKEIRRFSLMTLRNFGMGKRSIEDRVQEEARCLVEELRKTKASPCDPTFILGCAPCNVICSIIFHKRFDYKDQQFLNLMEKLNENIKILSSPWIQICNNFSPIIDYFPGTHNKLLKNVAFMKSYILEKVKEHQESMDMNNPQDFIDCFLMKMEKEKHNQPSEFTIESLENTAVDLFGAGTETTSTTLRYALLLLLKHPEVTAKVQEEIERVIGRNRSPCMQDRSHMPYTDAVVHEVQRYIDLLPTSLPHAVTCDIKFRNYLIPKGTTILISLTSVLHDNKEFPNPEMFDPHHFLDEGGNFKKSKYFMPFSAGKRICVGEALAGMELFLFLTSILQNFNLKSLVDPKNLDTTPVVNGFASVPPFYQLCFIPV
# [22] = Cmax in Swiss mouse blood at 50 mg/kg, po via gavage measured up to 24 hrs by UPLC-MS analysis; assay type: ADME, organism-based; set-up: dose 50 mg/kg, route oral; conditions: in vivo
# CYP3A4/5 [23] = molecular target: T1, CYP3A4/5; experiment: in vitro; conditions: liver microsomes, probe midazolam; remark: listed apart in the source
# CYP3A4/5 [24] = molecular target: T1, CYP3A4/5; experiment: in vitro; conditions: liver microsomes, probe midazolam; remark: listed apart in the source
# [25] = Inhibition of yeast DHODH transformed in Plasmodium falciparum D10 in presence of 10 uM proguanil; set-up: species or system Saccharomyces cerevisiae
# [26] = Cmax in NOD-SCID IL2Rgamma null mouse blood infected with Plasmodium falciparum 3D70087/N9 at 10 mg/kg, po qd for 4 days starting from 3 days post infection and measured after 24 hrs post dose by LC-MS/MS analysis; assay type: ADME, organism-based; set-up: dose 10 mg/kg, route oral
# [27] = AUC (0 to infinity) in Swiss mouse at 18.3 mg/kg, po via gavage measured up to 24 hrs by UPLC-MS analysis; assay type: ADME, organism-based; set-up: dose 18.3 mg/kg, time infinity, route oral; conditions: in vivo
# [28] = AUC (0 to infinity) in Swiss mouse blood at 50 mg/kg, po via gavage measured up to 24 hrs by UPLC-MS analysis; assay type: ADME, organism-based; set-up: dose 50 mg/kg, time infinity, route oral; conditions: in vivo
# [29] = AUC (0 to 23 hrs) in NOD-SCID IL2Rgamma null mouse blood infected with Plasmodium falciparum 3D70087/N9 at 10 mg/kg, po qd for 4 days starting from 3 days post infection and measured after 24 hrs post dose by LC-MS/MS analysis; assay type: ADME, organism-based; set-up: dose 10 mg/kg, time < 23 hr, route oral
# [30] = Apparent half life in Swiss mouse at 18.3 mg/kg, po via gavage measured up to 24 hrs by UPLC-MS analysis; assay type: ADME, organism-based; conditions: in vivo
# [31] = Toxicity in Plasmodium falciparum 3D70087/N9 infected NOD-SCID IL2Rgamma null mouse at 50 mg/kg, po administered once daily for 4 days measured 24 hrs post dose; assay type: organism-based; conditions: in vivo
# [32] = Protein binding in human plasma by LC-MS analysis based ultracentrifugation assay; assay type: ADME, cell-free; conditions: read-out: PPB (converted)
# [33] = Oral bioavailability in Sprague-Dawley rat at 33 mg/kg administered via gavage measured up to 24 hrs by LC-MS analysis; assay type: ADME, organism-based; conditions: in vivo
# Cytochrome P450 2C19 [34] = molecular target: T3, Cytochrome P450 2C19 (Homo sapiens, UniProt P33261); experiment: Time-dependent inhibition of CYP2C19 in human liver microsomes using (S)-mephenytoin as substrate in absence of NADPH regenerating system by UPLC-MS analysis; assay type: ADME
# T3 sequence (P33261 whole entry): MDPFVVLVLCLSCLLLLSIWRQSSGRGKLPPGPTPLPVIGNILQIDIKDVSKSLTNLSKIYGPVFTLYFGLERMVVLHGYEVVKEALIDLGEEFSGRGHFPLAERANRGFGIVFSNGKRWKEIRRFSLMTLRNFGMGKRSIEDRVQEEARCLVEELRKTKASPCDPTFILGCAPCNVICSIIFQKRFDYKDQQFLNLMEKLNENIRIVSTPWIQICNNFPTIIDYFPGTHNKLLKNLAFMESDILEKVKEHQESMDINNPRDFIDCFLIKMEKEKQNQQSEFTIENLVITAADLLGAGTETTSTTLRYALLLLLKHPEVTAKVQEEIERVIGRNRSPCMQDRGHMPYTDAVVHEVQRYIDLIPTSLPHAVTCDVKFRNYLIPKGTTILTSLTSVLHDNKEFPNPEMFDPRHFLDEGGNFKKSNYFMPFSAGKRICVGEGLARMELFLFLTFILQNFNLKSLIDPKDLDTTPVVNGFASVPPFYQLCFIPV
# Cytochrome P450 2C19 [35] = molecular target: T3, Cytochrome P450 2C19; experiment: Inhibition of CYP2C19 in human liver microsomes using (S)-mephenytoin as substrate measured for 10 to 30 mins in presence of NADPH regenerating system by UPLC-MS analysis; assay type: ADME
smiles,measurement,setting,value
Cc1c(Cc2ccc(C(F)(F)F)nc2)c[nH]c1C(=O)NC1CC1,IC50,CYP3A4/5 [1],5.5 µM
same,IC50,CYP3A4/5 [2],5.5 µM
same,solubility,[3],60.1 µg/mL
same,Cmax,[4],42.3 µM
same,F,[5],> 100%
same,fraction unbound,Albumin,0.482
same,IC50,Cytochrome P450 2D6 [6],> 20 µM
same,AUC at 23 h,[7],26.7 µM·h
same,t1/2(app),[8],3.6 h
same,IC50,CYP3A4/5 [9],> 20 µM
same,AUC,[10],220 µM·h
same,EC50,[11],> 11 µM
same,EC50,Plasmodium falciparum,0.024 µM
same,t1/2(app),[12],2.8 h
same,F,[13],91%
same,logD,physchem,2.8
same,solubility,[14],45.6 µg/mL
same,Cmax,[15],4.6 µM
same,CC50,L1210,> 50 µM
same,Cmax,[16],1.7 µM
same,solubility,[17],46.4 µg/mL
same,fAUC,[18],1100 ng·h/mL
same,Vd,[19],4.7 L/kg
same,clearance,[20],28.6 mL/min/kg
same,TDI,Cytochrome P450 2D6 [21],Not Active
same,TDI,Cytochrome P450 2C9,Not Active
same,Cmax,[22],33.8 µM
same,IC50,CYP3A4/5 [23],> 20 µM
same,IC50,CYP3A4/5 [24],> 20 µM
same,EC50,[25],> 20 µM
same,Cmax,[26],0.6 µM
same,AUC,[27],55.6 µM·h
same,AUC,[28],176 µM·h
same,AUC at 23 h,[29],2.1 µM·h
same,t1/2(app),[30],2.6 h
same,Activity,[31],Toxic
same,fraction unbound,[32],0.1
same,F,[33],> 100%
same,TDI,Cytochrome P450 2C19 [34],Not Active
same,IC50,Cytochrome P450 2C19 [35],> 20 µM
